# Target: T1, squalene synthase (Rattus norvegicus, UniProt Q02769)
# T1 construct: Microsomes are prepared by centrifugation (100,000 g) and then resuspended in the assay buffer; from tissue; host or cells: liver microsomes of male Sprague-Dawley rats (animals from Taconic Farms, Germantown, N.Y.)
# T1 sequence (Q02769 1-416): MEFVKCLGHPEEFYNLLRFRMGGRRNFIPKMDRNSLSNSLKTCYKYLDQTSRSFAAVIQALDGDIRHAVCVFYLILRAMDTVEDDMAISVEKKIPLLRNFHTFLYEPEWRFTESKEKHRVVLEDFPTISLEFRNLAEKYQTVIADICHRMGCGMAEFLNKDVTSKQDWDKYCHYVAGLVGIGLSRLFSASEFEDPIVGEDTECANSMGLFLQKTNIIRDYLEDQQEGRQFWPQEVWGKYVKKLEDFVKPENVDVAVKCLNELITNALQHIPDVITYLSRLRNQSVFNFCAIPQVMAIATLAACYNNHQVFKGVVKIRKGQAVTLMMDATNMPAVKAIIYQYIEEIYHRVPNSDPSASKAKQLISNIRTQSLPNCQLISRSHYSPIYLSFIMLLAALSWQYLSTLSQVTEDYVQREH
# Assay: Squalene Synthase Inhibition Assay (rat liver microsomes, [3H]FPP)
# Assay type: biochemical, rat (male Sprague-Dawley)
# Details: for IC50: 50 mM, pH 7.4
# Method: Squalene Synthase Inhibition Assay
# I. Preparation of Assay Substances:
# Test solutions are prepared fresh in 100% DMSO or dH2 O. Subsequent dilutions are made in the same solvent. Compounds are tested initially at 1 μM (final concentrations).
# Potassium Phosphate (50 mM,) pH 7.4, and HEPES (4-(2-hydroxyethyl)-1-piperazineethanesulfonic acid, 50 mM) pH 7.4 stock buffers are prepared and stored at 4° C. until use.
# C) Microsomal Enzyme Preparation:
# Fresh livers from male Sprague-Dawley rats (Taconic Farms, Germantown, N.Y.) weighing 150-200 g are collected after exsanguination. All subsequent procedures are performed at 4° C. The liver is homogenized in the assay buffer (50 mM, pH 7.4). Cellular fractions are separated as described by Popjak, G. in "Enzymes of sterol biosynthesis in liver and intermediates of sterol biosynthesis," Meth. Enzymol. […] Microsomes are prepared by centrifugation (100,000 g) and then resuspended in the assay buffer. Microsomes are rehomogenized with a motor-driven Teflon pestle to yield a uniform suspension (~30 mg protein/ml), aliquoted, and stored at -80° C. until use.
# II. Squalene Synthase Assay
# The procedure is a modification of those described by Popjack (ibid) and Poulter et al. in "Squalene synthase. Inhibition by ammonium analogues of carbocationic intermediates in the conversion of presqualene diphosphate to squalene" J. Am. Chem. Soc. […] All components except [^3 H]FPP are preincubated for 10 min. at 37° C. The reaction is initiated by the addition of [^3 H]FPP. […] The tubes are incubated at 65° C. for 30 min. to solubilize proteins. The mixture is extracted with 5 ml petroleum ether for 10 min. After freezing the lower aqueous phase, the organic phase is transferred to glass tubes containing 2 ml distilled water. After washing the lower aqueous phase is frozen and the petroleum ether phase is removed and counted with 10 ml Ready Safe liquid scintillation cocktail using a Beckman LS-9000 scintillation counter. DPM values are adjusted against a blank (no enzyme).
# The difference in radioactivity in the presence and absence of the test compound is used to determine the level of inhibition. […] Tallarida, R. J. and Murray, R. B. Manual of pharmacologic calculations with computer programs.
IC50 (HEPES buffer) [µM],"inhibition at 5 µM (Phosphate buffer, @ 5 μM) [%]",inhibition at 10 µM (Phosphate buffer) [%],SMILES,inhibition at 10 µM (HEPES buffer) [%]
–,61,–,O=P(O)(O)CCCN[C@@H]1CC=CC[C@H]1c1ccc(/C=C/c2ccccc2)cc1 (relative stereo),-2
17,–,35,O=P(O)(O)CCCN1CCC=C(c2ccc(-c3nc4ccccc4o3)cc2)C1,–

# More lines, now with the values behind:
SMILES,IC50 (HEPES buffer) [µM],"inhibition at 5 µM (Phosphate buffer, @ 5 μM) [%]",inhibition at 10 µM (Phosphate buffer) [%],inhibition at 10 µM (HEPES buffer) [%]
O=P(O)(O)C(CCN[C@@H]1CCCC[C@H]1OCc1ccc(-c2nc3ccccc3o2)cc1)P(=O)(O)O (relative stereo),0.013,–,–,–
COP(=O)(O)C(CCN[C@@H]1CC=CC[C@H]1c1ccc(/C=C/c2ccccc2)cc1)P(=O)(O)OC (relative stereo),–,–,–,69
CCOP(=O)(OCC)C(CCN[C@@H]1CCCC[C@H]1OCc1ccc(-c2nc3ccccc3o2)cc1)P(=O)(OCC)OCC (relative stereo),–,–,–,14
